Patent US4268630A, “Microbiological production of ketones from C3 -C6 alkanes” (priority 1979, dated 1981)
Read-outs that look alike come from different tables or passages of the source.

What was measured:
[1] = tested on: Methylobacterium organophilum XX (ATCC 27886); assay: Oxidation of sec-alcohols to ketones by resting cell suspension; type: cell-based
Procedure: (§1) The pH of the nutrient medium was adjusted to 7.0 by the addition of acid or base and 50 ml. samples of the nutrient medium were charged into a plurality of 300 ml. shaker flasks. The shaker flasks were inoculated with an inoculating loop of cells from an agar plate containing homogeneous colonies of the microorganisms on the plate (the purity of the isolates was confirmed by microscopic examination). The isolates had been maintained on methanol (0.4% V/V) agar plates or on agar plates under an atmosphere of methane and air having a 1:1 V/V gas ratio which had been transferred every two weeks. For growth on methanol, the medium was supplemented with 0.4% methanol. For growth on methane, the gaseous phase of the inoculated flasks was replaced with a gas mixture comprised on methane and air having a ratio of 1:1 on a V/V basis. The inoculated flasks were sealed air-tight and were incubated on a rotary shaker of orbital radius 2.5 cm. at 250 rpm and at 30° C. for two days until turbidity in the medium had developed. The cells were harvested by centrifugation at 10,000×g. at 4° C. for 30 minutes. The cell pellet was washed twice with a 0.05 M phosphate buffer at a pH of 7.0 (containing 0.02 M MgCl2). The washed cells were then suspended in a 0.05 M phosphate buffer at pH 7.0.
(§2) A 0.5 ml. sample of each washed cell suspension (2 mg. cells) was put into 10 ml. vials at 4° C. which were sealed with a rubber cap. The gaseous phase of the vials was removed with vacuum and then was replaced with a gas mixture of the substrate reactant (i.e., alkane or secondary alcohol) and oxygen at a 1:1 V/V ratio. (In the case of a liquid substrate, i.e., secondary alcohol, 10 μl of the substrate was put in the 10 ml. vials). […] Samples of product (1-3 μl) were withdrawn periodically with a microsyringe and the products were analyzed by gas chromatography (ionization flame detector column).
(§3) The procedure in Example 1 was repeated wherein a plurality of the methane-utilizing methylotrophic microorganisms were each grown aerobically in a nutrient medium containing methane as the alcohol dehydrogenase enzyme inducer and as the major carbon and energy source for growth. The cells were harvested and washed as described in Example 1. The resting microbial cells of the induced methane-grown methane-utilizing methylotrophic microorganisms were then contacted with C3 -C6 secondary alcohols in a buffered solution by the procedure of Example 1.
(§4) In this example, the procedure in Example 1 was repeated except that a plurality of methane-utilizing methylotrophic microorganisms were each aerobically grown in a methanol-containing nutrient medium instead of a methane-containing medium. The nutrients in the medium were the same as indicated in Example 1 except that 0.4% V/V methanol was used as the alcohol dehydrogenase inducer and major source of carbon and energy for growth. Following growth, the cells were harvested and washed as described in Example 1. The resting cells of the induced methanol-grown methylotrophic microorganisms were then contacted with secondary alcohols in a buffered solution by the procedure described in Example 1.
(§5) The procedure in Example 1 was repeated except that the methylotrophic microorganisms were each aerobically grown in an alcohol dehydrogenase-inducing growth medium containing methylamine or methyl formate as the alcohol dehydrogenase enzyme inducer and growth substrate instead of methane. The nutrients in the medium were the same as indicated in Example 1 except that 0.4% V/V of the alcohol dehydrogenase-inducer growth substrate was used as the major carbon and energy source. The cells were harvested and washed as described in Example 1. The resting microbial cells were then contacted with C3 -C6 secondary alcohols in a buffered solution by the conversion procedure of Example 1.

[2] = tested on: Methylosinus trichosporium OB3b (NRRL B-11,196); assay: as above; type: cell-based
Procedure: as §1, §2, §3, §4, §5

[3] = tested on: Methylobacter capsulatus Y (NRRL B-11,201); assay: as above; type: cell-based
Procedure: as §1, §2, §3, §4

[4] = tested on: Methylococcus capsulatus, Texas (ATCC 19069); assay: as above; type: cell-based
Procedure: as §1, §2, §3, §4

[5] = tested on: Methylocystis parvus OBBP (NRRL B-11,198); assay: as above; type: cell-based
Procedure: as §1, §2, §3, §4

[6] = tested on: Methylomonas albus BG8 (NRRL B-11,200); assay: as above; type: cell-based
Procedure: as §1, §2, §3, §4

[7] = tested on: Methylomonas methanica S1 (NRRL B-11,199); assay: as above; type: cell-based
Procedure: as §1, §2, §3, §4

[8] = tested on: Methylosinus sporium 5 (NRRL B-11,197); assay: as above; type: cell-based
Procedure: as §1, §2, §3, §4

[9] = tested on: Hansenula polymorpha ATCC 26012; assay: Oxidation of sec-alcohols to ketones by cell suspensions of yeasts; type: cell-based
Pichia sp. NRRL-Y-11328 = assay: as above; type: cell-based
[10] = tested on: Kloeckera sp. Strain A2 (NRRL Y-11,420); assay: as above; type: cell-based
[11] = tested on: cell extracts of Candida utilis ATCC 26,387; assay: NAD+-dependent oxidation of secondary alcohols by cell extracts of yeasts; type: biochemical; settings: for Conversion Rate, secondary alcohol to methylketone: cell extracts, grown on methanol, NAD+, gas chromatography
[12] = tested on: cell extracts of Hansenula polymorpha ATCC 26,012; assay: as above; type: biochemical; settings: for Conversion Rate, secondary alcohol to methylketone: cell extracts, grown on methanol, NAD+, gas chromatography
[13] = tested on: cell extracts of Pichia sp. NRRL Y-11,328; assay: as above; type: biochemical; settings: grown on methanol, gas chromatography
[14] = tested on: cell extracts of Torulopsis sp. strain A1 NRRL Y-11,419; assay: as above; type: biochemical; settings: for Conversion Rate, secondary alcohol to methylketone: cell extracts, grown on methanol, NAD+, gas chromatography
[15] = tested on: secondary alcohol dehydrogenase; assay: Activity of purified yeast-derived secondary alcohol dehydrogenase; type: biochemical, Pichia sp. NRRL Y-11,328
[16] = spectrophotometric, 2-butanol as substrate

CC(C)O [2-Propanol, 2-propanol]
Conversion Rates, sec-alcohol to methyl ketone ([1]; cells grown on methanol): 0.70 μmoles/hr/mg protein
Conversion Rates, sec-alcohol to methyl ketone ([1]; methyl formate-grown): 0.48 μmoles/hr/mg protein
Conversion Rates, sec-alcohol to methyl ketone ([1]; resting cells grown on methane): 0.5 μmoles/hr/mg protein
Conversion Rates, sec-alcohol to methyl ketone ([2]; cells grown on methanol): 0.30 μmoles/hr/mg protein
Conversion Rates, sec-alcohol to methyl ketone ([2]; methyl formate-grown): 0.95 μmoles/hr/mg protein
Conversion Rates, sec-alcohol to methyl ketone ([2]; resting cells grown on methane): 0.25 μmoles/hr/mg protein
Conversion Rates, sec-alcohol to methyl ketone ([3]; cells grown on methanol): 0.52 μmoles/hr/mg protein
Conversion Rates, sec-alcohol to methyl ketone ([3]; resting cells grown on methane): 0.15 μmoles/hr/mg protein
Conversion Rates, sec-alcohol to methyl ketone ([4]; cells grown on methanol): 0.75 μmoles/hr/mg protein
Conversion Rates, sec-alcohol to methyl ketone ([4]; resting cells grown on methane): 0.08 μmoles/hr/mg protein
Conversion Rates, sec-alcohol to methyl ketone ([5]; cells grown on methanol): 0.25 μmoles/hr/mg protein
Conversion Rates, sec-alcohol to methyl ketone ([5]; resting cells grown on methane): 0.32 μmoles/hr/mg protein
Conversion Rates, sec-alcohol to methyl ketone ([6]; cells grown on methanol): 1.5 μmoles/hr/mg protein
Conversion Rates, sec-alcohol to methyl ketone ([6]; resting cells grown on methane): 1.3 μmoles/hr/mg protein
Conversion Rates, sec-alcohol to methyl ketone ([7]; cells grown on methanol): 0.35 μmoles/hr/mg protein
Conversion Rates, sec-alcohol to methyl ketone ([7]; resting cells grown on methane): 0.40 μmoles/hr/mg protein
Conversion Rates, sec-alcohol to methyl ketone ([8]; cells grown on methanol): 0.45 μmoles/hr/mg protein
Conversion Rates, sec-alcohol to methyl ketone ([8]; resting cells grown on methane): 0.30 μmoles/hr/mg protein
Conversion Rate, sec-alcohol to ketone ([9]; growth substrate Ethanol): 5.0 μmoles/hr/mg of protein
Conversion Rate, sec-alcohol to ketone ([9]; growth substrate Methanol): 5.9 μmoles/hr/mg of protein
Conversion Rate, sec-alcohol to ketone ([9]; growth substrate Methylamine): 5.2 μmoles/hr/mg of protein
Conversion Rate, sec-alcohol to ketone ([9]; growth substrate Methylformate): 5.6 μmoles/hr/mg of protein
Conversion Rate, sec-alcohol to ketone ([9]; growth substrate Propylamine): 4.1 μmoles/hr/mg of protein
Conversion Rate, sec-alcohol to ketone (Pichia sp. NRRL-Y-11328; growth substrate Ethanol): 4.5 μmoles/hr/mg of protein
Conversion Rate, sec-alcohol to ketone (Pichia sp. NRRL-Y-11328; growth substrate Methanol): 5.2 μmoles/hr/mg of protein
Conversion Rate, sec-alcohol to ketone (Pichia sp. NRRL-Y-11328; growth substrate Methylamine): 4.2 μmoles/hr/mg of protein
Conversion Rate, sec-alcohol to ketone (Pichia sp. NRRL-Y-11328; growth substrate Methylformate): 4.9 μmoles/hr/mg of protein
Conversion Rate, sec-alcohol to ketone (Pichia sp. NRRL-Y-11328; growth substrate Propylamine): 3.2 μmoles/hr/mg of protein
Conversion Rate, sec-alcohol to ketone ([10]; growth substrate Ethanol): 4.5 μmoles/hr/mg of protein
Conversion Rate, sec-alcohol to ketone ([10]; growth substrate Methanol): 4.8 μmoles/hr/mg of protein
Conversion Rate, sec-alcohol to ketone ([10]; growth substrate Methylamine): 4.0 μmoles/hr/mg of protein
Conversion Rate, sec-alcohol to ketone ([10]; growth substrate Methylformate): 4.9 μmoles/hr/mg of protein
Conversion Rate, sec-alcohol to ketone ([10]; growth substrate Propylamine): 4.0 μmoles/hr/mg of protein
Conversion Rate, secondary alcohol to methylketone [11]: 4.5 μmoles/hr/mg Protein
Conversion Rate, secondary alcohol to methylketone [12]: 4.8 μmoles/hr/mg Protein
Conversion Rate, secondary alcohol to methylketone [13]: 5.5 μmoles/hr/mg Protein
Conversion Rate, secondary alcohol to methylketone [14]: 4.5 μmoles/hr/mg Protein
substrate specificity of purified yeast secondary alcohol dehydrogenase (in words) ([15]; spectrophotometric): catalyzed the oxidation

CCC(C)O (stereo not shown) [2-Butanol, 2-butanol]
Conversion Rates, sec-alcohol to methyl ketone ([1]; cells grown on methanol): 2.8 μmoles/hr/mg protein
Conversion Rates, sec-alcohol to methyl ketone ([1]; methyl formate-grown): 3.5 μmoles/hr/mg protein
Conversion Rates, sec-alcohol to methyl ketone ([1]; resting cells grown on methane): 2.5 μmoles/hr/mg protein
Conversion Rates, sec-alcohol to methyl ketone ([2]; cells grown on methanol): 4.1 μmoles/hr/mg protein
Conversion Rates, sec-alcohol to methyl ketone ([2]; methyl formate-grown): 4.5 μmoles/hr/mg protein
Conversion Rates, sec-alcohol to methyl ketone ([2]; resting cells grown on methane): 3.7 μmoles/hr/mg protein
Conversion Rates, sec-alcohol to methyl ketone ([3]; cells grown on methanol): 1.5 μmoles/hr/mg protein
Conversion Rates, sec-alcohol to methyl ketone ([3]; resting cells grown on methane): 0.84 μmoles/hr/mg protein
Conversion Rates, sec-alcohol to methyl ketone ([4]; cells grown on methanol): 0.70 μmoles/hr/mg protein
Conversion Rates, sec-alcohol to methyl ketone ([4]; resting cells grown on methane): 0.60 μmoles/hr/mg protein
Conversion Rates, sec-alcohol to methyl ketone ([5]; cells grown on methanol): 1.0 μmoles/hr/mg protein
Conversion Rates, sec-alcohol to methyl ketone ([5]; resting cells grown on methane): 1.1 μmoles/hr/mg protein
Conversion Rates, sec-alcohol to methyl ketone ([6]; cells grown on methanol): 3.0 μmoles/hr/mg protein
Conversion Rates, sec-alcohol to methyl ketone ([6]; resting cells grown on methane): 3.5 μmoles/hr/mg protein
Conversion Rates, sec-alcohol to methyl ketone ([7]; cells grown on methanol): 0.40 μmoles/hr/mg protein
Conversion Rates, sec-alcohol to methyl ketone ([7]; resting cells grown on methane): 0.39 μmoles/hr/mg protein
Conversion Rates, sec-alcohol to methyl ketone ([8]; cells grown on methanol): 3.5 μmoles/hr/mg protein
Conversion Rates, sec-alcohol to methyl ketone ([8]; resting cells grown on methane): 3.0 μmoles/hr/mg protein
Conversion Rate, sec-alcohol to ketone ([9]; growth substrate Ethanol): 4.8 μmoles/hr/mg of protein
Conversion Rate, sec-alcohol to ketone ([9]; growth substrate Methanol): 5.8 μmoles/hr/mg of protein
Conversion Rate, sec-alcohol to ketone ([9]; growth substrate Methylamine): 4.5 μmoles/hr/mg of protein
Conversion Rate, sec-alcohol to ketone ([9]; growth substrate Methylformate): 5.2 μmoles/hr/mg of protein
Conversion Rate, sec-alcohol to ketone ([9]; growth substrate Propylamine): 4.0 μmoles/hr/mg of protein
Conversion Rate, sec-alcohol to ketone (Pichia sp. NRRL-Y-11328; growth substrate Ethanol): 6.2 μmoles/hr/mg of protein
Conversion Rate, sec-alcohol to ketone (Pichia sp. NRRL-Y-11328; growth substrate Methanol): 6.8 μmoles/hr/mg of protein
Conversion Rate, sec-alcohol to ketone (Pichia sp. NRRL-Y-11328; growth substrate Methylamine): 5.1 μmoles/hr/mg of protein
Conversion Rate, sec-alcohol to ketone (Pichia sp. NRRL-Y-11328; growth substrate Methylformate): 6.9 μmoles/hr/mg of protein
Conversion Rate, sec-alcohol to ketone (Pichia sp. NRRL-Y-11328; growth substrate Propylamine): 2.1 μmoles/hr/mg of protein
Conversion Rate, sec-alcohol to ketone ([10]; growth substrate Ethanol): 5.7 μmoles/hr/mg of protein
Conversion Rate, sec-alcohol to ketone ([10]; growth substrate Methanol): 5.9 μmoles/hr/mg of protein
Conversion Rate, sec-alcohol to ketone ([10]; growth substrate Methylamine): 5.4 μmoles/hr/mg of protein
Conversion Rate, sec-alcohol to ketone ([10]; growth substrate Methylformate): 5.9 μmoles/hr/mg of protein
Conversion Rate, sec-alcohol to ketone ([10]; growth substrate Propylamine): 4.2 μmoles/hr/mg of protein
Conversion Rate, secondary alcohol to methylketone [11]: 4.92 μmoles/hr/mg Protein
specific activities [11, 16]: 78 nmoles NAD^+ reduced per min. per mg. protein
Conversion Rate, secondary alcohol to methylketone [12]: 5.2 μmoles/hr/mg Protein
specific activities [12, 16]: 85 nmoles NAD^+ reduced per min. per mg. protein
Conversion Rate, secondary alcohol to methylketone [13]: 6.2 μmoles/hr/mg Protein
Conversion Rate, secondary alcohol to methylketone [14]: 4.9 μmoles/hr/mg Protein
specific activities [14, 16]: 62 nmoles NAD^+ reduced per min. per mg. protein
substrate specificity of purified yeast secondary alcohol dehydrogenase (in words) [15]: catalyzed the oxidation
